Data on 19 compounds can be found in patent US8343983B2, “Substituted pyrazolo-pyrimidine compounds” (ArQule, Inc., priority 2009, dated 2013).

Read-outs that look alike come from different tables or passages of the source.

The subject of this experiment is cancer cells. The experiment can be described thus: MTS assay: inhibition of cell growth (formazan absorbance at 492 nm after 72 hours with test compound). The experiment is classed as cell-based. The settings on record: inhibition class. The gist of the method: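 DMEM with 1% FBS; cells seeded at 3000/well and grown 18 h at 37 °C, then exposed to compound for 72 h and to MTS/PMS for 4 h. IC50 is the concentration giving a 50% absorbance drop; grades are % inhibition bands.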
For orientation: Tetrazolium dyes change colour on reduction, which living cells bring about.

Setting [1] is: Homo sapiens, DLD-1 cells, read-out: DLD-1, MTS 72 hours at 10 uM.
Setting [2] is: Homo sapiens, KATO III cells, read-out: KATO III, MTS 72 hours at 10 uM.
Setting [3] is: Homo sapiens, MDA-MB-231 cells, read-out: MDA-MB-231, MTS 72 hours at 10 uM.
The mark [4] stands for this setting: Homo sapiens, NCI-H1299 cells, read-out: NCI-H1299, MTS 72 hours at 10 uM.
[5] abbreviates: Homo sapiens, PC-3 cells, read-out: PC-3, MTS 72 hours at 10 uM.
Setting [6] is: PACA-2 cells, read-out: PACA-2, MTS 72 hours at 10 uM.

As to `COc1ccc(CN2CCc3n[nH]c4nc(N5CCN(Cc6ccccc6)CC5)nc2c34)cc1` [Compound 114, 4-(4-benzylpiperazin-1-yl)-6-(4-methoxybenzyl)-2,6,7,8-tetrahydro-1,2,3,5,6-pentaazaacenaphthylene], the inhibition at 10 µM under setting [1] is less than 50%; the inhibition at 10 µM under setting [2] is less than 50%; the inhibition at 10 µM under setting [3] is less than 50%; the inhibition at 10 µM under setting [4] was less than 50%; the inhibition at 10 µM under setting [5] is less than 50%; the inhibition at 10 µM under setting [6] was less than 50%.

As to `Clc1cccc(Oc2ccccc2)c1CNc1nc2c3c(n[nH]c3n1)CCN2Cc1ccccc1` [Compound 16, 6-benzyl-N-(2-chloro-6-phenoxybenzyl)-2,6,7,8-tetrahydro-1,2,3,5,6-pentaazaacenaphthylen-4-amine], the inhibition at 10 µM runs as follows: under setting [1], less than 50%; under setting [2], less than 50%; under setting [3], less than 50%; under setting [4], 50 to 79%; under setting [5], 50 to 79%; under setting [6], less than 50%.

Consider `Cc1ccccc1CNC(=O)C1CN(Cc2ccccc2)c2nc(NCc3ccccc3)nc3[nH]nc1c23` (stereo not drawn) [Compound 233, 6-benzyl-4-(benzylamino)-N-(2-methylbenzyl)-2,6,7,8-tetrahydro-1,2,3,5,6-pentaazaacenaphthylene-8-carboxamide], for which the inhibition at 10 µM is, setting by setting: under setting [1], more than 79%; under setting [2], 50 to 79%; under setting [3], more than 79%; under setting [4], more than 79%; under setting [5], more than 79%; under setting [6], less than 50%.

For the compound `COc1ccc(CN2CCc3n[nH]c4nc(NCCc5c[nH]c6ccccc56)nc2c34)cc1` [Compound 104, N-[2-(1H-indol-3-yl)ethyl]-6-(4-methoxybenzyl)-2,6,7,8-tetrahydro-1,2,3,5,6-pentaazaacenaphthylen-4-amine], the inhibition at 10 µM was 50 to 79% under setting [1]; 50 to 79% under setting [2]; less than 50% under setting [3]; 50 to 79% under setting [4]; less than 50% under setting [5]; less than 50% under setting [6].

As to `CN1CCC(Nc2nc3c4c(n[nH]c4n2)CCN3)CC1` [Compound 126, N-(1-methylpiperidin-4-yl)-2,6,7,8-tetrahydro-1,2,3,5,6-pentaazaacenaphthylen-4-amine], the inhibition at 10 µM is, setting by setting: under setting [1], less than 50%; under setting [2], less than 50%; under setting [3], less than 50%; under setting [4], less than 50%; under setting [5], less than 50%; under setting [6], less than 50%.

For `c1ccc(CN2CCc3n[nH]c4nc(NCCc5cccnc5)nc2c34)cc1` [Compound 30, 6-benzyl-N-(2-pyridin-3-ylethyl)-2,6,7,8-tetrahydro-1,2,3,5,6-pentaazaacenaphthylen-4-amine], the inhibition at 10 µM by setting is: under setting [1], 50 to 79%; under setting [2], 50 to 79%; under setting [3], 50 to 79%; under setting [4], less than 50%; under setting [5], less than 50%; under setting [6], less than 50%.

As to `Fc1ccccc1CCNc1nc2c3c(n[nH]c3n1)CCN2Cc1ccccc1` [Compound 22, 6-benzyl-N-[2-(2-fluorophenyl)ethyl]-2,6,7,8-tetrahydro-1,2,3,5,6-pentaazaacenaphthylen-4-amine], the inhibition at 10 µM under setting [1] is less than 50%; the inhibition at 10 µM under setting [2] is less than 50%; the inhibition at 10 µM under setting [3] was less than 50%; the inhibition at 10 µM under setting [4] is less than 50%; the inhibition at 10 µM under setting [5] is less than 50%; the inhibition at 10 µM under setting [6] was less than 50%.

With `Clc1cncc(Cl)c1N1CCN(c2nc3c4c(n[nH]c4n2)CCN3Cc2ccccc2)CC1` [Compound 85, 6-benzyl-4-[4-(3,5-dichloropyridin-4-yl)piperazin-1-yl]-2,6,7,8-tetrahydro-1,2,3,5,6-pentaazaacenaphthylene], the inhibition at 10 µM is less than 50% under setting [1]; less than 50% under setting [2]; 50 to 79% under setting [3]; less than 50% under setting [4]; more than 79% under setting [5]; less than 50% under setting [6].

With `O=C(NCc1ccc(Cl)cc1)C1CN(Cc2ccccc2)c2nc(NCc3ccccc3)nc3[nH]nc1c23` (stereo not drawn) [Compound 238, 6-benzyl-4-(benzylamino)-N-(4-chlorobenzyl)-2,6,7,8-tetrahydro-1,2,3,5,6-pentaazaacenaphthylene-8-carboxamide], the inhibition at 10 µM under setting [1] was more than 79%; the inhibition at 10 µM under setting [2] was more than 79%; the inhibition at 10 µM under setting [3] was more than 79%; the inhibition at 10 µM under setting [4] is more than 79%; the inhibition at 10 µM under setting [5] is more than 79%; the inhibition at 10 µM under setting [6] lay in the range of 50 to 79%.

Turning to `COc1ccc(CCNc2nc3c4c(n[nH]c4n2)CCN3Cc2ccccc2)cc1` [Compound 32, 6-benzyl-N-[2-(4-methoxyphenyl)ethyl]-2,6,7,8-tetrahydro-1,2,3,5,6-pentaazaacenaphthylen-4-amine], the inhibition at 10 µM reads like this: under setting [1], more than 79%; under setting [2], more than 79%; under setting [3], more than 79%; under setting [4], more than 79%; under setting [5], more than 79%; under setting [6], more than 79%.

Regarding `COc1cc(CNc2nc3c4c(n[nH]c4n2)CCN3Cc2ccccc2)cc(OC)c1OC` [Compound 50, 6-benzyl-N-(3,4,5-trimethoxybenzyl)-2,6,7,8-tetrahydro-1,2,3,5,6-pentaazaacenaphthylen-4-amine], the inhibition at 10 µM is, setting by setting: under setting [1], less than 50%; under setting [2], less than 50%; under setting [3], less than 50%; under setting [4], less than 50%; under setting [5], less than 50%; under setting [6], less than 50%.

In the case of `c1ccc(CN2CCN(c3nc4c5c(n[nH]c5n3)CCN4c3ccccc3)CC2)cc1` [Compound 217, 4-(4-benzylpiperazin-1-yl)-6-phenyl-2,6,7,8-tetrahydro-1,2,3,5,6-pentaazaacenaphthylene], the inhibition at 10 µM is less than 50% under setting [1]; less than 50% under setting [2]; less than 50% under setting [3]; less than 50% under setting [4]; less than 50% under setting [5]; less than 50% under setting [6].

With `Fc1cccc(CCNc2nc3c4c(n[nH]c4n2)CCN3Cc2ccccc2)c1` [Compound 94, 6-benzyl-N-[2-(3-fluorophenyl)ethyl]-2,6,7,8-tetrahydro-1,2,3,5,6-pentaazaacenaphthylen-4-amine], the inhibition at 10 µM reads like this: under setting [1], less than 50%; under setting [2], less than 50%; under setting [3], less than 50%; under setting [4], less than 50%; under setting [5], less than 50%; under setting [6], less than 50%.

As to `COc1ccc(CN2CCc3n[nH]c4nc(NCc5ccccc5Cl)nc2c34)cc1` [Compound 112, N-(2-chlorobenzyl)-6-(4-methoxybenzyl)-2,6,7,8-tetrahydro-1,2,3,5,6-pentaazaacenaphthylen-4-amine], the inhibition at 10 µM runs as follows: under setting [1], more than 79%; under setting [2], more than 79%; under setting [3], more than 79%; under setting [4], less than 50%; under setting [5], more than 79%; under setting [6], more than 79%.

Take `COc1ccc(CN2CCCc3n[nH]c4nc(NCCc5ccc(F)cc5)nc2c34)cc1` [Compound 248, N-[2-(4-fluorophenyl)ethyl]-6-(4-methoxybenzyl)-6,7,8,9-tetrahydro-2H-1,2,3,5,6-pentaazabenzo[cd]azulen-4-amine]: the inhibition at 10 µM under setting [1] is more than 79%; the inhibition at 10 µM under setting [2] is more than 79%; the inhibition at 10 µM under setting [3] is more than 79%; the inhibition at 10 µM under setting [4] is more than 79%; the inhibition at 10 µM under setting [5] was more than 79%; the inhibition at 10 µM under setting [6] is more than 79%.

In the case of `COc1ccc(CN2CCc3nn(Cc4ccccc4)c4nc(SC)nc2c34)cc1` [Compound 129, 2-benzyl-6-(4-methoxybenzyl)-4-(methylsulfanyl)-2,6,7,8-tetrahydro-1,2,3,5,6-pentaazaacenaphthylene], the inhibition at 10 µM by setting is: under setting [1], less than 50%; under setting [2], less than 50%; under setting [3], less than 50%; under setting [4], less than 50%; under setting [5], less than 50%; under setting [6], less than 50%.

As to `c1ccc(N2CCc3n[nH]c4nc(N5CCOCC5)nc2c34)cc1` [Compound 218, 4-morpholin-4-yl-6-phenyl-2,6,7,8-tetrahydro-1,2,3,5,6-pentaazaacenaphthylene], the inhibition at 10 µM runs as follows: under setting [1], less than 50%; under setting [2], less than 50%; under setting [3], less than 50%; under setting [4], less than 50%; under setting [5], less than 50%; under setting [6], less than 50%.

Consider `c1ccc(N2CCc3n[nH]c4nc(N5CCN(c6ccncc6)CC5)nc2c34)cc1` [Compound 210, 6-phenyl-4-(4-pyridin-4-ylpiperazin-1-yl)-2,6,7,8-tetrahydro-1,2,3,5,6-pentaazaacenaphthylene], for which the inhibition at 10 µM is, setting by setting: under setting [1], more than 79%; under setting [2], more than 79%; under setting [3], more than 79%; under setting [4], more than 79%; under setting [5], more than 79%; under setting [6], more than 79%.

Consider `Cc1cccc(N2CCN(c3nc4c5c(n[nH]c5n3)CCN4Cc3ccccc3)CC2)n1` [Compound 27, 6-benzyl-4-[4-(6-methylpyridin-2-yl)piperazin-1-yl]-2,6,7,8-tetrahydro-1,2,3,5,6-pentaazaacenaphthylene], for which the inhibition at 10 µM is less than 50% under setting [1]; less than 50% under setting [2]; less than 50% under setting [3]; less than 50% under setting [4]; less than 50% under setting [5]; less than 50% under setting [6].
